Source: ChEMBL document CHEMBL1201862, “PubChem BioAssay data set” (2004)
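Cultured in 96-well plates, cells were exposed to test compound for 48 hours across five concentrations. At the GI50, growth is halved.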 Active and inactive are the calls of the source. No stated cut-off is given here; in the data, active = GI50 up to about 1.1 µM and inactive = higher.

How the values were obtained:
Experiment in all cases: inhibition of tumour cell growth, NCI panel, 48 h
OVCAR-3 = system: OVCAR-3
OVCAR-8 = system: OVCAR-8
MDA-MB-231 = system: MDA-MB-231
U-251 = system: U-251
DU-145 = system: DU-145
MCF7 = system: MCF7
HL-60 = system: HL-60
K562 = system: K562
NCI/ADR-RES = system: NCI/ADR-RES
RPMI-8226 = system: RPMI-8226
Malme-3M = system: Malme-3M
MDA-N = system: MDA-N
SN12C = system: SN12C
UO-31 = system: UO-31
SF-268 = system: SF-268
KM12 = system: KM12
SK-MEL-5 = system: SK-MEL-5
SK-OV-3 = system: SK-OV-3
A498 = system: A498
HCT-15 = system: HCT-15

| SMILES | GI50 (OVCAR-3) | GI50 (OVCAR-8) | GI50 (MDA-MB-231) | GI50 (U-251) | GI50 (DU-145) | GI50 (MCF7) | GI50 (HL-60) | GI50 (K562) | GI50 (NCI/ADR-RES) | GI50 (RPMI-8226) | GI50 (Malme-3M) | GI50 (MDA-N) | GI50 (SN12C) | GI50 (UO-31) | GI50 (SF-268) | GI50 (KM12) | GI50 (SK-MEL-5) | GI50 (SK-OV-3) | GI50 (A498) | GI50 (HCT-15) [µM] |
| --- | --- | --- | --- | --- | --- | --- | --- | --- | --- | --- | --- | --- | --- | --- | --- | --- | --- | --- | --- | --- |
| CC1(C)COC(c2cccc(C(O)c3ccc(Cl)cc3)c2)=N1 (centres undefined) | 20.1 µM (inactive) | 16.1 µM (inactive) | 29.9 µM (inactive) | 22.6 µM (inactive) | 58.2 µM (inactive) | 19.6 µM (inactive) | 41 µM (inactive) | 23.4 µM (inactive) | 33.3 µM (inactive) | 27.2 µM (inactive) | 25.1 µM (inactive) | 24.8 µM (inactive) | 26.9 µM (inactive) | 17.1 µM (inactive) | 31.1 µM (inactive) | 43.7 µM (inactive) | 14.4 µM (inactive) | 26.4 µM (inactive) | – | – |
| O=c1oc2ccccc2cc1-c1nc2ccccc2s1 | 6.4 µM (inactive) | 7.74 µM (inactive) | 12 µM (inactive) | 7.35 µM (inactive) | 14.2 µM (inactive) | – | > 100 µM (inactive) | 3.61 µM (inactive) | 10 µM (inactive) | 2.79 µM (inactive) | 2.2 µM (inactive) | 15.2 µM (inactive) | – | 5.83 µM (inactive) | 8.73 µM (inactive) | 6.89 µM (inactive) | 19 µM (inactive) | 10.1 µM (inactive) | 13.4 µM (inactive) | 29.6 |
| COc1ccc(NC(=O)C(=O)Cc2nc3ccc(C(=O)c4ccccc4)cc3nc2O)c([N+](=O)[O-])c1 | 22.5 µM (inactive) | 18.8 µM (inactive) | 23 µM (inactive) | 41.9 µM (inactive) | 27.5 µM (inactive) | 41.6 µM (inactive) | – | – | 11.5 µM (inactive) | – | 53.6 µM (inactive) | 23.4 µM (inactive) | 35.7 µM (inactive) | 18.2 µM (inactive) | 34.8 µM (inactive) | 6.93 µM (inactive) | 22.6 µM (inactive) | 52 µM (inactive) | 16.6 µM (inactive) | 34 |
| C[C@]12CC[C@H](O)CC1=CC[C@@H]1C2CC[C@]2(C)c3n[nH]nc3CC12 (some centres undefined) | > 100 µM (inactive) | > 100 µM (inactive) | > 100 µM (inactive) | > 100 µM (inactive) | > 100 µM (inactive) | > 100 µM (inactive) | 44.4 µM (inactive) | 39.8 µM (inactive) | – | – | > 100 µM (inactive) | 36.3 µM (inactive) | > 100 µM (inactive) | > 100 µM (inactive) | > 100 µM (inactive) | > 100 µM (inactive) | > 100 µM (inactive) | > 100 µM (inactive) | > 100 µM (inactive) | – |
| COc1ccc2c(c1)CC[C@@H]1C2CC[C@]2(C)C(=O)N(C)C(=O)CC12 (some centres undefined) | > 100 µM (inactive) | > 100 µM (inactive) | > 100 µM (inactive) | 75.9 µM (inactive) | > 100 µM (inactive) | > 100 µM (inactive) | 15.7 µM (inactive) | > 100 µM (inactive) | – | – | > 100 µM (inactive) | > 100 µM (inactive) | > 100 µM (inactive) | > 100 µM (inactive) | > 100 µM (inactive) | > 100 µM (inactive) | > 100 µM (inactive) | > 100 µM (inactive) | > 100 µM (inactive) | – |
| Cc1ccc2ccccc2c1CC1S(=O)(=O)OCCOS1(=O)=O | 6.89 µM (inactive) | 14.5 µM (inactive) | 13.6 µM (inactive) | 12 µM (inactive) | 11.9 µM (inactive) | 7.69 µM (inactive) | 2.12 µM (inactive) | 9.12 µM (inactive) | 19.1 µM (inactive) | 11.4 µM (inactive) | 11.5 µM (inactive) | 9.48 µM (inactive) | 10.1 µM (inactive) | 14.1 µM (inactive) | – | 12.1 µM (inactive) | 12.8 µM (inactive) | – | – | 18.2 |
